pIC50: −log10 of the molar value.
Legend:
Raw264.7 p110 γ = target: T1, Raw264.7 p110 γ (Mus musculus, UniProt Q9JHG7); test: Raw264.7 p110 γ cellular assay (phospho-AKT); type: cell-based; settings: serum-starved RAW264.7 cells stimulated with C5a
T1 construct: reduction of phospho-AKT in stimulated RAW 264.7 cells; endogenous in cells; host or cells: RAW264.7 macrophages
From the text: (b) PI3K-γ Selective Assay
Briefly, serum-starved PAW264.7 cells are stimulated with a known GPCR agonist C5a. […] Cells can be treated with test compounds prior to, simultaneously with, or subsequent to the stimulation by C5a. RAW 264.7 cells respond to the complement component fragment C5a through activation of the C5a receptor, and the C5a receptor activates macrophages and induces cell migration.

PI3K γ = target: T2, PI3K γ (Homo sapiens, UniProt P48736); test: PI3-Kinase Promega ADP-Glo Max assay; type: biochemical; settings: 40 nM kinase, 3 mM ATP, 500 uM diC8-PtdInsP
T2 construct: purchased Millipore
How it was run: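 Human class I PI3K reactions ran 2 hours at room temperature, followed by stop solution (40 min) and detection mix (1 hour) before luminescence reading.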

RAJI p110 δ = RAJI p110 δ (Homo sapiens, UniProt O00329); test: RAJI p110 δ cellular assay (phospho-AKT);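 further: potency based on lowered phosphorylated AKT in RAJI cells, as a readout of PI3K-δ dependent B-cell receptor signaling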
From the text: (a) PI3K-δ Selective Assay
Reduction of phospho-AKT is indicative of compounds that may inhibit B-cell proliferation and function in certain diseases.

PI3K α = target: T3, PI3K α (Homo sapiens, UniProt P42336); test: PI3-Kinase Promega ADP-Glo Max assay; type: biochemical; settings: 20 nM kinase, 3 mM ATP, 500 uM diC8-PtdInsP
T3 construct: purchased Millipore
How it was run: (§1)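 Human class I PI3K (20 nM α or δ, 40 nM β) pre-incubated 15 min with compound in HEPES pH 7.4 buffer with MgCl2, then reacted 2 h at room temperature with 3 mM ATP and 500 uM diC8-PtdInsP. ADP measured by ADP-Glo Max luminescence; % inhibition fitted to 4-parameter logistic for IC50.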

PI3K δ = target: T4, PI3K δ (Homo sapiens, UniProt O00329); test: PI3-Kinase Promega ADP-Glo Max assay; type: biochemical; settings: 20 nM kinase, 3 mM ATP, 500 uM diC8-PtdInsP
T4 construct: purchased Millipore
How it was run: as §1

PI3K β = target: T5, PI3K β (Homo sapiens, UniProt P42338); test: PI3-Kinase Promega ADP-Glo Max assay; type: biochemical; settings: 40 nM kinase, 3 mM ATP, 500 uM diC8-PtdInsP
T5 construct: purchased Millipore
How it was run: as §1

T4 sequence (O00329 whole entry): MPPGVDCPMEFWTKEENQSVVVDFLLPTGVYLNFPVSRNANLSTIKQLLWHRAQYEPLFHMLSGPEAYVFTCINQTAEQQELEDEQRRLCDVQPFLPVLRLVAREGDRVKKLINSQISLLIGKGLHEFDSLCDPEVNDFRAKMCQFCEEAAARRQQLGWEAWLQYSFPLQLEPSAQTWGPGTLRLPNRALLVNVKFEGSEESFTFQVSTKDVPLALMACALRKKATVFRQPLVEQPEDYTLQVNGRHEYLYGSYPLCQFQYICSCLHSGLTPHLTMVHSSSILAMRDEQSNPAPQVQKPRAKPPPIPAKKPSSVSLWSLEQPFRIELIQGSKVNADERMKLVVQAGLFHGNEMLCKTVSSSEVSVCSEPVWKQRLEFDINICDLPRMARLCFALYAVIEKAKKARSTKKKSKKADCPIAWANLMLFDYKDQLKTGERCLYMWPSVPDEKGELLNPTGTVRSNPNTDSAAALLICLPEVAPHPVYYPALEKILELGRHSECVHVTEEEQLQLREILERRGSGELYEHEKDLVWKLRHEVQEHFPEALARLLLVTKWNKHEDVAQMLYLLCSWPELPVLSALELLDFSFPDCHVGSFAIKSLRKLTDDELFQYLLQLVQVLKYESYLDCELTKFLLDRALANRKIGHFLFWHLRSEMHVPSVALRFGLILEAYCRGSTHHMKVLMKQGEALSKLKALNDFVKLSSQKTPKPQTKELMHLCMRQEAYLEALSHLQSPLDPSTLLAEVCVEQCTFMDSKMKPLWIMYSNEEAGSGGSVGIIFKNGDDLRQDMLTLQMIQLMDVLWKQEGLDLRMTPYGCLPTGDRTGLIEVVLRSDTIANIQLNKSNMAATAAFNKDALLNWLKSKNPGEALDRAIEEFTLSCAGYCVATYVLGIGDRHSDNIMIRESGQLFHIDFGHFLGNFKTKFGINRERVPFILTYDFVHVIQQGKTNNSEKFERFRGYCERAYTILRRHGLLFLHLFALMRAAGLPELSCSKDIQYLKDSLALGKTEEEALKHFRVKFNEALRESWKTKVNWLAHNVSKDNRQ
T4 sequence (P27986 whole entry partner): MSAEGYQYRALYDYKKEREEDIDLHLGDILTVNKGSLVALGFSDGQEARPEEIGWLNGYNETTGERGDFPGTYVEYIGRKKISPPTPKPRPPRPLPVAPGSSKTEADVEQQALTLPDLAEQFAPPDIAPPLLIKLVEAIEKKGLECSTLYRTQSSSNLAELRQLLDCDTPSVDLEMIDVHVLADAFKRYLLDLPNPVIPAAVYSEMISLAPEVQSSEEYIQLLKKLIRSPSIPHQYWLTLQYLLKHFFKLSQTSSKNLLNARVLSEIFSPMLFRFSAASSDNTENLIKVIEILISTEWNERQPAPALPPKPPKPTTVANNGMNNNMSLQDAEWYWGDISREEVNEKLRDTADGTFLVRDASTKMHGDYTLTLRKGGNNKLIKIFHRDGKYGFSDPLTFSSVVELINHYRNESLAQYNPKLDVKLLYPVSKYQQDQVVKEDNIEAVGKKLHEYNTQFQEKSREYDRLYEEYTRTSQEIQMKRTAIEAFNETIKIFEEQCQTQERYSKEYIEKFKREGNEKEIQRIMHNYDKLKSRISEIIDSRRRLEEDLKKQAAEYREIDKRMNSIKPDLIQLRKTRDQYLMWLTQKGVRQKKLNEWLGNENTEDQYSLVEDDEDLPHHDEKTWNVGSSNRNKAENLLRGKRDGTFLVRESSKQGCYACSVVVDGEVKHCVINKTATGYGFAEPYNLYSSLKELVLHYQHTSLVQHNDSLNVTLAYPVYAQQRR
Sequence of RAJI p110 δ (O00329 whole entry): as the sequence (O00329 whole entry) above
Sequence of RAJI p110 δ (P27986 whole entry partner): as the sequence (P27986 whole entry partner) above
T2 sequence (P48736 whole entry): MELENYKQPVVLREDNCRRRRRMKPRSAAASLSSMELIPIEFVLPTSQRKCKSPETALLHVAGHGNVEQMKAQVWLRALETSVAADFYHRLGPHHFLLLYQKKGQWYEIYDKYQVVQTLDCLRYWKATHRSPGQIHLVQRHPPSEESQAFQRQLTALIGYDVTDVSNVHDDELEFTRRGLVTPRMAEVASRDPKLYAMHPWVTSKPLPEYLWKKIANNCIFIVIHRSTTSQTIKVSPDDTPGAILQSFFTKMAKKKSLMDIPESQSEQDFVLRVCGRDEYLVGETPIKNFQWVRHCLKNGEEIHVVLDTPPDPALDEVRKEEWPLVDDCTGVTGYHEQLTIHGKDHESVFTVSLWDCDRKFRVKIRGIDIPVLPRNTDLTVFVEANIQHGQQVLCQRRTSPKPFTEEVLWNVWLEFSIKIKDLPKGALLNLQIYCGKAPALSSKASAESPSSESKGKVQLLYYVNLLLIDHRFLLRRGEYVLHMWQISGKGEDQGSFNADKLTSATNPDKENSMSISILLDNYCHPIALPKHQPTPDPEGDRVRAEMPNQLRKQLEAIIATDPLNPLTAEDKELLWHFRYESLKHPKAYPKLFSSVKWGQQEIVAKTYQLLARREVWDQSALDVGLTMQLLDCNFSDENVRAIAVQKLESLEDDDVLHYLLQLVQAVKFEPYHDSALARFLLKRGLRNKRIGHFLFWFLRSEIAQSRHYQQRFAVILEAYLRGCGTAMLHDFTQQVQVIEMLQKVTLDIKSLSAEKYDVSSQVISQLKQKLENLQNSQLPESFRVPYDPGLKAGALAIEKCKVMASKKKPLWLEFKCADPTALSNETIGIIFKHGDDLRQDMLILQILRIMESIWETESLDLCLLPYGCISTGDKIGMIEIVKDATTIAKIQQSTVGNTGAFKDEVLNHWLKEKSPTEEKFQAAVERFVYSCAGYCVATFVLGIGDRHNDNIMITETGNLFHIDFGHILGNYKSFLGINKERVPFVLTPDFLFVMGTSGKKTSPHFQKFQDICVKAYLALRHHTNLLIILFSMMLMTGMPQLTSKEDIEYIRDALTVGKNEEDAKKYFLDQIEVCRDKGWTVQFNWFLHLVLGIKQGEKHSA
T1 sequence (Q9JHG7 whole entry): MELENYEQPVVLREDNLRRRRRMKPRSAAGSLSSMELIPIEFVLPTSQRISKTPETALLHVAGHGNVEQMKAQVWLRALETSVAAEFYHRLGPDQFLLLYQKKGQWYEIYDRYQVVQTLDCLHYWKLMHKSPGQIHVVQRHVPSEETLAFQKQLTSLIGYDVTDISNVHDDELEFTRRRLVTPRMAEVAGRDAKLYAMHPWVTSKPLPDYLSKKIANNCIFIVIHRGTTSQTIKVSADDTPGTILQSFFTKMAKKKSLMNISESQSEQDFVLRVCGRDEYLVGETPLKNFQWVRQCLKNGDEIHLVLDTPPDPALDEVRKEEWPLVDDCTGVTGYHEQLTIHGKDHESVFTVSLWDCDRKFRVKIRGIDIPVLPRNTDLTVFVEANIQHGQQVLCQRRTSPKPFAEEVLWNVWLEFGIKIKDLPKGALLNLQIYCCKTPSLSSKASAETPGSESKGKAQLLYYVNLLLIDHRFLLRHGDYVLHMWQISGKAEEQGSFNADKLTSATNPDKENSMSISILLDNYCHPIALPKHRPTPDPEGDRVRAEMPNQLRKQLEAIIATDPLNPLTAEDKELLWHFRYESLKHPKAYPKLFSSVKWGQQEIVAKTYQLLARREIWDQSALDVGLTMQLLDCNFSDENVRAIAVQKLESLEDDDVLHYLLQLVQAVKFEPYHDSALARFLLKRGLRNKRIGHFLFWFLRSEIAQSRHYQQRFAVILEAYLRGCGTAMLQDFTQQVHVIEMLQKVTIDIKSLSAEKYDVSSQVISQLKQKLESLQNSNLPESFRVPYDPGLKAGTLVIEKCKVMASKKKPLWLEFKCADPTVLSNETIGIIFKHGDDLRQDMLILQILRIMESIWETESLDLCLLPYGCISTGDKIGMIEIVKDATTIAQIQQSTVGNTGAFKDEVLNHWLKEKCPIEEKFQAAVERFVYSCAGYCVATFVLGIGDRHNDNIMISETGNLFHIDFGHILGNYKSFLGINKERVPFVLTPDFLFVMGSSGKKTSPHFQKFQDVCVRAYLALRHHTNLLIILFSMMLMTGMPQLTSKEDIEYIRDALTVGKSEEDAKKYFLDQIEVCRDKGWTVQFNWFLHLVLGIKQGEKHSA

Row | SMILES | pIC50 (Raw264.7 p110 γ) | pIC50 (PI3K γ) | pIC50 (RAJI p110 δ) | pIC50 (PI3K α) | pIC50 (PI3K δ) | pIC50 (PI3K β)
1 | C[C@H](NC(=O)c1c(N)nn2cccnc12)c1cc2cccc(C#CCNC(=O)c3ccc(C#N)o3)c2c(=O)n1-c1ccccc1 [Compound 164] | > 7.00 | 6.00 to 7.00 | > 7.00 | 6.00 to 7.00 | 5.00 to 6.00 | 5.00 to 6.00
2 | CC(=O)NCC#Cc1cccc2cc([C@H](C)NC(=O)c3c(N)nn4cccnc34)n(-c3ccccc3)c(=O)c12 [Compound 165] | > 7.00 | > 7.00 | > 7.00 | 5.00 to 6.00 | 5.00 to 6.00 | 5.00 to 6.00
3 | CC#Cc1cccc2cc([C@H](C)NC(=O)c3c(N)nn4cccnc34)n(-c3ccccc3)c(=O)c12 [Compound 167] | > 7.00 | > 7.00 | > 7.00 | 5.00 to 6.00 | 5.00 to 6.00 | 5.00 to 6.00
4 | C[C@H](NC(=O)c1nc(-c2cccc(NS(C)(=O)=O)c2)c(N)nc1N)c1cc2cccc(Cl)c2c(=O)n1-c1ccccc1 [Compound 169] | > 7.00 | > 7.00 | > 7.00 | > 7.00 | 6.00 to 7.00 | > 7.00
5 | C[C@H](NC(=O)c1nc(-c2cccc(NS(C)(=O)=O)c2)cnc1N)c1cc2cccc(Cl)c2c(=O)n1C1CC1 [Compound 171] | > 7.00 | > 7.00 | > 7.00 | 5.00 to 6.00 | 5.00 to 6.00 | 6.00 to 7.00
6 | CC(C)c1ccn2nc(N)c(C(=O)N[C@@H](C)c3cc4cccc(Cl)c4c(=O)n3-c3ccccc3)c2n1 [Compound 178] | > 7.00 | 5.00 to 6.00 | 6.00 to 7.00 | < 5.00 | 5.00 to 6.00 | 5.00 to 6.00
7 | C[C@H](NC(=O)c1c(N)nn2cccnc12)c1cc2cccc(N(C)C)c2c(=O)n1-c1ccccc1 [Compound 180] | 6.00 to 7.00 | 5.00 to 6.00 | 5.00 to 6.00 | < 5.00 | < 5.00 | < 5.00
8 | C[C@H](NC(=O)c1nc(-c2cccc(NS(C)(=O)=O)c2)cnc1N)c1cc2cccc(Cl)c2c(=O)n1C [Compound 183] | > 7.00 | > 7.00 | > 7.00 | 6.00 to 7.00 | 6.00 to 7.00 | > 7.00
9 | C[C@H](NC(=O)c1c(N)nn2cccnc12)c1cc2cccc(N3CCOCC3)c2c(=O)n1-c1ccccc1 [Compound 184] | 6.00 to 7.00 | 5.00 to 6.00 | 5.00 to 6.00 | < 5.00 | < 5.00 | < 5.00
10 | COc1cc(-c2cccc3cc([C@H](C)NC(=O)c4c(N)nn5ccc(C)nc45)n(-c4ccccc4)c(=O)c23)ccn1 [Compound 186] | > 7.00 | 6.00 to 7.00 | > 7.00 | 5.00 to 6.00 | 5.00 to 6.00 | < 5.00
11 | C[C@H](NC(=O)c1c(N)nn2cccnc12)c1cc2cccc(C#CCNS(C)(=O)=O)c2c(=O)n1-c1ccccc1 [Compound 187] | > 7.00 | 6.00 to 7.00 | 6.00 to 7.00 | 5.00 to 6.00 | 5.00 to 6.00 | 5.00 to 6.00
12 | COc1cc(-c2cccc3cc([C@H](C)NC(=O)c4c(N)nn5cccnc45)n(-c4cccc(F)c4)c(=O)c23)ccn1 [Compound 189] | > 7.00 | 6.00 to 7.00 | 6.00 to 7.00 | 5.00 to 6.00 | 5.00 to 6.00 | < 5.00
13 | C[C@H](NC(=O)c1c(N)nn2cccnc12)c1cc2cccc(F)c2c(=O)n1-c1ccccc1 [Compound 191] | > 7.00 | > 7.00 | > 7.00 | 5.00 to 6.00 | 6.00 to 7.00 | 6.00 to 7.00
14 | C[C@H](NC(=O)c1c(N)nn2cccnc12)c1cc2cccc(C3CC3)c2c(=O)n1-c1ccccc1 [Compound 193] | > 7.00 | 5.00 to 6.00 | 6.00 to 7.00 | < 5.00 | 5.00 to 6.00 | < 5.00
15 | C[C@H](NC(=O)c1nc(-c2cccc(S(=O)(=O)NC3CC3)c2)cnc1N)c1cc2cccc(Cl)c2c(=O)n1C [Compound 194] | > 7.00 | > 7.00 | > 7.00 | 6.00 to 7.00 | 6.00 to 7.00 | > 7.00
16 | C[C@H](NC(=O)c1c(N)nn2cccnc12)c1cc2cccc(Cl)c2c(=O)n1C1CCCCC1 [Compound 196] | > 7.00 | 5.00 to 6.00 | > 7.00 | 5.00 to 6.00 | 5.00 to 6.00 | 5.00 to 6.00

Row | SMILES | pIC50 (Raw264.7 p110 γ) | pIC50 (PI3K γ) | pIC50 (RAJI p110 δ) | pIC50 (PI3K α) | pIC50 (PI3K δ) | pIC50 (PI3K β)
17 | C[C@H](NC(=O)c1c(N)nn2cccnc12)c1cc2ccsc2c(=O)n1-c1ccccc1 [Compound 198] | 6.00 to 7.00 | 5.00 to 6.00 | 6.00 to 7.00 | < 5.00 | 5.00 to 6.00 | 5.00 to 6.00
18 | C[C@H](NC(=O)c1c(N)nn2cccnc12)c1cc2cccc(C=O)c2c(=O)n1-c1ccccc1 [Compound 201] | > 7.00 | 5.00 to 6.00 | 6.00 to 7.00 | < 5.00 | 5.00 to 6.00 | 5.00 to 6.00
19 | CC(=O)Nc1cccc(-c2cccc3cc([C@H](C)NC(=O)c4c(N)nn5cccnc45)n(-c4ccccc4)c(=O)c23)c1 [Compound 202] | 6.00 to 7.00 | 6.00 to 7.00 | > 7.00 | 5.00 to 6.00 | 5.00 to 6.00 | < 5.00
20 | CC(=O)Nc1ccc(-c2cccc3cc([C@H](C)NC(=O)c4c(N)nn5cccnc45)n(-c4ccccc4)c(=O)c23)cc1 [Compound 203] | > 7.00 | 6.00 to 7.00 | > 7.00 | 5.00 to 6.00 | 5.00 to 6.00 | < 5.00
21 | C[C@H](NC(=O)c1c(N)nn2cccnc12)c1cc2scc(-c3cnn(C)c3)c2c(=O)n1-c1ccccc1 [Compound 209] | 6.00 to 7.00 | 5.00 to 6.00 | 5.00 to 6.00 | < 5.00 | < 5.00 | < 5.00
22 | C[C@H](NC(=O)c1c(N)nn2cccnc12)c1cc2scc(Cl)c2c(=O)n1-c1ccccc1 [Compound 212] | > 7.00 | > 7.00 | > 7.00 | 5.00 to 6.00 | 6.00 to 7.00 | 6.00 to 7.00
23 | C[C@H](NC(=O)c1c(N)ncc2cccnc12)c1cc2cccc(N3CCOCC3)c2c(=O)n1-c1ccccc1 [Compound 214] | > 7.00 | 6.00 to 7.00 | > 7.00 | < 5.00 | 5.00 to 6.00 | < 5.00
24 | CC(NC(=O)c1c(N)nn2cccnc12)c1cc2cccc(Cl)c2nc1-c1ccccc1 (stereo not drawn) [Compound 218] | > 7.00 | 5.00 to 6.00 | > 7.00 | < 5.00 | 5.00 to 6.00 | 5.00 to 6.00
25 | COc1cc(-c2cccc3cc(C(C)NC(=O)c4c(N)nn5cccnc45)c(-c4ccccc4)nc23)ccn1 (stereo not drawn) [Compound 219] | > 7.00 | 5.00 to 6.00 | 6.00 to 7.00 | < 5.00 | < 5.00 | < 5.00
26 | COc1cc(-c2cccc3cc([C@H](C)NC(=O)c4c(N)nn5cccnc45)n(C)c(=O)c23)ccn1 [Compound 220] | > 7.00 | 5.00 to 6.00 | > 7.00 | 5.00 to 6.00 | 5.00 to 6.00 | < 5.00
27 | C[C@H](NC(=O)c1c(N)nn2cccnc12)c1cc2cccc(-c3ccn[nH]3)c2c(=O)n1-c1ccccc1 [Compound 221] | > 7.00 | 6.00 to 7.00 | 6.00 to 7.00 | 5.00 to 6.00 | 5.00 to 6.00 | < 5.00
28 | C[C@H](NC(=O)c1c(N)nn2cccnc12)c1cc2cccc(-c3cnn(C)c3)c2c(=O)n1-c1ccccc1 [Compound 222] | > 7.00 | 6.00 to 7.00 | > 7.00 | < 5.00 | 5.00 to 6.00 | < 5.00
29 | COc1ccc(-c2cccc3cc([C@H](C)NC(=O)c4c(N)nn5cccnc45)n(-c4ccccc4)c(=O)c23)cn1 [Compound 223] | > 7.00 | 6.00 to 7.00 | > 7.00 | < 5.00 | 5.00 to 6.00 | < 5.00
30 | C[C@H](NC(=O)c1c(N)nn2cccnc12)c1cc2sccc2c(=O)n1-c1ccccc1 [Compound 225] | 6.00 to 7.00 | 5.00 to 6.00 | 6.00 to 7.00 | < 5.00 | 5.00 to 6.00 | 5.00 to 6.00
31 | C[C@H](NC(=O)c1c(N)nn2cccnc12)c1cc2cccc(C#N)c2c(=O)n1-c1ccccc1 [Compound 227] | > 7.00 | 6.00 to 7.00 | > 7.00 | < 5.00 | 5.00 to 6.00 | 5.00 to 6.00
32 | C[C@H](NC(=O)c1c(N)nn2cccnc12)c1cc2cccc(CO)c2c(=O)n1-c1ccccc1 [Compound 228] | > 7.00 | 6.00 to 7.00 | 6.00 to 7.00 | < 5.00 | 5.00 to 6.00 | 5.00 to 6.00

— patent US8940742B2, “Heterocyclic compounds and uses thereof” (Infinity Pharmaceuticals, Inc., priority 2012, dated 2015)
